Consider two compounds from article PMC4933336, “Examining the Effects of Sodium Ions on the Binding of Antagonists to Dopamine D2 and D3 Receptors” (PLoS ONE, 2016).

This experiment has as its target T1, dopamine D3 receptor (D3), Sf9 (Homo sapiens, UniProt P35462).
T1 construct: gene DRD3; full-length from pCMV5-hD3, no tag mentioned; membranes of Sf9 cells (baculovirus)
As to the kind of experiment: [3H]spiperone competition binding, Sf9 membranes. Particulars: read-out: D3 / + NaCl.

T1 sequence (P35462 whole entry): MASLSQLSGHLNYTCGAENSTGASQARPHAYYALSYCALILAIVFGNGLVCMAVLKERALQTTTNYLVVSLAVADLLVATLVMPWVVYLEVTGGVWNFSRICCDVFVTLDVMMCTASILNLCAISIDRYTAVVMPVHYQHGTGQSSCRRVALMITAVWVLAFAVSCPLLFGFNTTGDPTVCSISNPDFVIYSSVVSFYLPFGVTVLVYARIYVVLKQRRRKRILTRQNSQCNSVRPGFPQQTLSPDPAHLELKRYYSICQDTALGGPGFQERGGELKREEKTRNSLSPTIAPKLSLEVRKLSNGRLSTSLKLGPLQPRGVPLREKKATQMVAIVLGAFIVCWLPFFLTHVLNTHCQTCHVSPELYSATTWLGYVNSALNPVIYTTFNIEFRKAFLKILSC

Regarding `CCCN(CCC)C1Cc2cc(OC)c(OC)cc2C1` [U 99194], the IC50 amounted to 532 nM.

In the case of `COc1ccccc1N1CCN(CCCCNC(=O)c2ccc(-c3ccc(C(C)=O)cc3)cc2)CC1` [GR 103691], the IC50 stood at 0.46 nM.
